# Reference: publication PMC5214846 (Structure (London, England : 1993), 2016)
# Like-named read-outs stand apart in the source and are kept apart here.
# Tests used:
# ELIC [1] = target: T1, ELIC (Dickeya chrysanthemi, UniProt P0C7B7); details: cited from earlier work
# ELIC-α1β3GABAAR = assay type: cell-based; details: for Modulation of ELIC-α1β3GABAAR at EC20: agonist EC20
# ELIC [2] = target: T1, ELIC; assay: Functional measurements of Xenopus laevis oocytes expressing ELIC; details: for Modulation of ELIC at low agonist concentration (EC3) / Modulation of ELIC at EC20: representative traces; for Modulation of ELIC at EC20: agonist EC20
# [3] = Highest soluble concentration of long-chain alcohols
# T1 sequence (P0C7B7 whole entry): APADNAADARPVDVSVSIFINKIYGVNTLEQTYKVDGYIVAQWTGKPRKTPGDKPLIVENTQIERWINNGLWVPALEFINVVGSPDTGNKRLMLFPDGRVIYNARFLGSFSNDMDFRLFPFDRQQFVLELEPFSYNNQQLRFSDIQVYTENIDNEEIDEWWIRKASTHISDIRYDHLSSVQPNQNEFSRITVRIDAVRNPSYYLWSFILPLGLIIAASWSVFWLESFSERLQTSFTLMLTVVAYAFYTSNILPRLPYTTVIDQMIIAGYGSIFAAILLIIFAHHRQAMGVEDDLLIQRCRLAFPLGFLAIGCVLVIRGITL
compound,measurement,setting,value
CC(C)c1cccc(C(C)C)c1O [propofol],Effect on ELIC,"ELIC [1]; through a common TMD intra-subunit binding pocket, ref Kinde et al., 2016",inhibit
"OCCBr [BrEtOH, 2-bromoethanol]",Modulation of ELIC-α1β3GABAAR at low agonist concentration (EC3),ELIC-α1β3GABAAR,potentiate
same,Modulation of ELIC-α1β3GABAAR at EC20,ELIC-α1β3GABAAR,some potentiation
same,Modulation of ELIC at low agonist concentration (EC3),ELIC [2],inhibition
same,Modulation of ELIC at EC20,ELIC [2],strongly inhibit
CCCCCCCCCCO [n-decanol],Highest soluble concentration,[3],~ 0.3 mM
same,Inhibition of ELIC at highest soluble concentration,"ELIC [2]; n-decanol ~0.3 mM, n-dodecanol ~0.02 mM, PPA-elicited current",much weaker inhibition than n-nonanol or n-hexanol
"CCO [EtOH, ethanol]",Modulation of ELIC-α1β3GABAAR at low agonist concentration (EC3),ELIC-α1β3GABAAR,potentiate
same,Modulation of ELIC-α1β3GABAAR at EC20,ELIC-α1β3GABAAR,no inhibition
same,Modulation of ELIC at low agonist concentration (EC3),ELIC [2],inhibition
same,Modulation of ELIC at EC20,ELIC [2],strongly inhibit
FC(F)OC(Cl)C(F)(F)F (stereo not drawn) [isoflurane],Effect on ELIC,"ELIC [1]; binding to the pore at 6′ and 13′ positions, ref Chen et al., 2015",inhibits
